Structures are written as SMILES. Activity calls are given as the source filed them.

For data set [1], the target named is T1, Voltage-dependent T-type calcium channel subunit alpha-1G (Homo sapiens, UniProt O43497). The experiment in a line: Inhibition of Cav3.1 channel (unknown origin) assessed as reduction in peak currents at 10 uM by whole cell patch-clamp method.
For data set [2], the target named is T2, Voltage-dependent N-type calcium channel subunit alpha-1B (Homo sapiens, UniProt Q00975). The data set can be described thus: Inhibition of Cav2.2 channel (unknown origin) assessed as reduction in peak currents by whole cell patch-clamp method. For orientation: The patch-clamp technique gives a direct electrical read-out from membranes.
Target sequence in this assay (Q00975 whole entry): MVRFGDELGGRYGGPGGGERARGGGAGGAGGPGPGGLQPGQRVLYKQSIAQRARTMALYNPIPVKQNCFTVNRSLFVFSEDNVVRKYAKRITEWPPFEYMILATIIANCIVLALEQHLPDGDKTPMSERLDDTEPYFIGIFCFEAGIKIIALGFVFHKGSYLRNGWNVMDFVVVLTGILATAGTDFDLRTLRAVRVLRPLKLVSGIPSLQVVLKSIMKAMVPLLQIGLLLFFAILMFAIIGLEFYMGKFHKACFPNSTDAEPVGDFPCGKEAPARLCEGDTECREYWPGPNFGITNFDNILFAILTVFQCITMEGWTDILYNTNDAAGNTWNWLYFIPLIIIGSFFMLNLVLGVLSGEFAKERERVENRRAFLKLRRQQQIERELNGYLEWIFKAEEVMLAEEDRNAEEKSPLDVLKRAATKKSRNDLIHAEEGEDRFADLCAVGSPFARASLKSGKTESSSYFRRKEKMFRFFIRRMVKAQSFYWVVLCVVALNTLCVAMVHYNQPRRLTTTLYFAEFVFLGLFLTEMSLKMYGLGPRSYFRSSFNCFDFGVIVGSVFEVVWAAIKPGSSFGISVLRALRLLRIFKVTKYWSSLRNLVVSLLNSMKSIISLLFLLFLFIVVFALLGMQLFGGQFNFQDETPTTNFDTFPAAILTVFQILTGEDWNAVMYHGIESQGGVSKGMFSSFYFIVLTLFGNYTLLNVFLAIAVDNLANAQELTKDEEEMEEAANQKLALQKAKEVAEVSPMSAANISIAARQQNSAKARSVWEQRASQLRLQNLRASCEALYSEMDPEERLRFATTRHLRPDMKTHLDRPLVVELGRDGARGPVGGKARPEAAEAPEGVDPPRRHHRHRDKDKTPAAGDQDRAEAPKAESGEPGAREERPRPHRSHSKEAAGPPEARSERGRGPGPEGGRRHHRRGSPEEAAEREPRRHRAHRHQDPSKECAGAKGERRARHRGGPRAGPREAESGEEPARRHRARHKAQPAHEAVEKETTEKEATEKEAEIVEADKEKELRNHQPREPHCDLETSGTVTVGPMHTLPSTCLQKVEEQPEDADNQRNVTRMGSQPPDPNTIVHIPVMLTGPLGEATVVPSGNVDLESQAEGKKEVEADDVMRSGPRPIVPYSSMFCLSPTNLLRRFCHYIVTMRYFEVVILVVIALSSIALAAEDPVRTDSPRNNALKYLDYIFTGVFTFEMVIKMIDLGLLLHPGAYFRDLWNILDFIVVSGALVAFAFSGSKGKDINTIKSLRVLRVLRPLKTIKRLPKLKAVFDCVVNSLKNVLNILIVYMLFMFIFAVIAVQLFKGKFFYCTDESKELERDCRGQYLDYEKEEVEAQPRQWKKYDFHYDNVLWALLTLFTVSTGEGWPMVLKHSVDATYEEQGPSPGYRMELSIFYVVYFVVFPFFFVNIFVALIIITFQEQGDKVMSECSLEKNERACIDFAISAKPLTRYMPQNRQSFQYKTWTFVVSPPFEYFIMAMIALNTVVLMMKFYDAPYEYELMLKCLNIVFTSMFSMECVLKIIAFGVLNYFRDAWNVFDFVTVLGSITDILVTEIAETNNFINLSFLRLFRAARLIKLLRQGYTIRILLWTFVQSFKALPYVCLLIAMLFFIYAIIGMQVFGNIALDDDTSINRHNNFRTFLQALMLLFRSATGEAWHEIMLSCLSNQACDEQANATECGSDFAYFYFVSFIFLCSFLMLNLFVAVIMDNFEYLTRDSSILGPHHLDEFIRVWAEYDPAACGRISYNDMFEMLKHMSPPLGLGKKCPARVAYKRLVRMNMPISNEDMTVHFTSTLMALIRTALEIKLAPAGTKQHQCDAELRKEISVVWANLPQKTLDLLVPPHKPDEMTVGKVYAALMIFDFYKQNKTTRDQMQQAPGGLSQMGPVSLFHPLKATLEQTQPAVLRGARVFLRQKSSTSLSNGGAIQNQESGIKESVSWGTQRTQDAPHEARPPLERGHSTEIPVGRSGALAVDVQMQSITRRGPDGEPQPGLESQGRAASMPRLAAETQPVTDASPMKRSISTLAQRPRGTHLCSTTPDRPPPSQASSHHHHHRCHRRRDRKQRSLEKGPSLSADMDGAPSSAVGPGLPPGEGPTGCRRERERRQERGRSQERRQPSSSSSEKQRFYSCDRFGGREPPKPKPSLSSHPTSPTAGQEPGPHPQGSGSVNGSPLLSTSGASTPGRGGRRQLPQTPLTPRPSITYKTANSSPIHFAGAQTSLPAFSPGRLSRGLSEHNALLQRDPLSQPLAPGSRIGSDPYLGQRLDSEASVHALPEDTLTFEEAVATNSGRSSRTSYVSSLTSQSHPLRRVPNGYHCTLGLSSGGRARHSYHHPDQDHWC
Data set [3] has as its target T1, Voltage-dependent T-type calcium channel subunit alpha-1G. The data set can be described thus: Inhibition of Cav3.1 channel (unknown origin) assessed as reduction in peak currents by whole cell patch-clamp method.
Data set [4] concerns the target T2, Voltage-dependent N-type calcium channel subunit alpha-1B. The data set can be described thus: Inhibition of Cav2.2 channel (unknown origin) assessed as reduction in peak currents at 10 uM by whole cell patch-clamp method.
Target sequence in this assay (Q00975 whole entry, looked up): as the sequence (Q00975 whole entry) above
The subject of data set [5] is Rattus norvegicus. The data set can be described thus: Analgesic activity in Sprague-Dawley rat model of spinal cord injury-induced neuropathic pain assessed as reduction in thermal hyperalgesia by measuring paw withdrawal latency time at 50 ug dosed intrathecally measured after 30 mins (reference value: […]). The format is functional.
Data set [6] relates to Rattus norvegicus. The experiment in a line: Analgesic activity in Sprague-Dawley rat model of spinal cord injury-induced neuropathic pain assessed as reduction in thermal hyperalgesia by measuring paw withdrawal latency time at 100 ug dosed intrathecally measured after 30 mins (reference value: […]). The format is functional.
Data set [7] has as its system Rattus norvegicus. The data set can be described thus: Analgesic activity in Sprague-Dawley rat model of spinal cord injury-induced neuropathic pain assessed as reduction in mechanical allodynia by measuring paw withdrawal threshold at 10 ug dosed intrathecally measured after 30 mins (reference value: 2.8 +/- 0.4 g). The format is functional.
Data set [8] has as its system Rattus norvegicus. The experiment in a line: Analgesic activity in Sprague-Dawley rat model of spinal cord injury-induced neuropathic pain assessed as reduction in thermal hyperalgesia by measuring paw withdrawal latency time at 10 ug dosed intrathecally measured after 30 mins (reference value: […]). The format is functional.
Data set [9] relates to Rattus norvegicus. The data set can be described thus: Analgesic activity in Sprague-Dawley rat model of spinal cord injury-induced neuropathic pain assessed as reduction in mechanical allodynia by measuring paw withdrawal threshold at 100 ug dosed intrathecally measured after 30 mins (reference value: 2.8 +/- 0.4 g). The format is functional.
The subject of data set [10] is Rattus norvegicus. The data set can be described thus: Analgesic activity in Sprague-Dawley rat model of spinal cord injury-induced neuropathic pain assessed as reduction in mechanical allodynia by measuring paw withdrawal threshold at 50 ug dosed intrathecally measured after 30 mins (reference value: 2.8 +/- 0.4 g). The format is functional.
Data set [11] concerns Rattus norvegicus. The experiment in a line: Effect on hind limb locomotion in Sprague-Dawley rat model of spinal cord injury-induced neuropathic pain assessed as Basso-Beattie-Bresnahan scores at 10 to 100 ug dosed via intrathecal route. The format is ADME, organism-based, Hindlimb. Particulars: in vivo, icv_or_intrathecal.

T1 sequence (O43497 whole entry): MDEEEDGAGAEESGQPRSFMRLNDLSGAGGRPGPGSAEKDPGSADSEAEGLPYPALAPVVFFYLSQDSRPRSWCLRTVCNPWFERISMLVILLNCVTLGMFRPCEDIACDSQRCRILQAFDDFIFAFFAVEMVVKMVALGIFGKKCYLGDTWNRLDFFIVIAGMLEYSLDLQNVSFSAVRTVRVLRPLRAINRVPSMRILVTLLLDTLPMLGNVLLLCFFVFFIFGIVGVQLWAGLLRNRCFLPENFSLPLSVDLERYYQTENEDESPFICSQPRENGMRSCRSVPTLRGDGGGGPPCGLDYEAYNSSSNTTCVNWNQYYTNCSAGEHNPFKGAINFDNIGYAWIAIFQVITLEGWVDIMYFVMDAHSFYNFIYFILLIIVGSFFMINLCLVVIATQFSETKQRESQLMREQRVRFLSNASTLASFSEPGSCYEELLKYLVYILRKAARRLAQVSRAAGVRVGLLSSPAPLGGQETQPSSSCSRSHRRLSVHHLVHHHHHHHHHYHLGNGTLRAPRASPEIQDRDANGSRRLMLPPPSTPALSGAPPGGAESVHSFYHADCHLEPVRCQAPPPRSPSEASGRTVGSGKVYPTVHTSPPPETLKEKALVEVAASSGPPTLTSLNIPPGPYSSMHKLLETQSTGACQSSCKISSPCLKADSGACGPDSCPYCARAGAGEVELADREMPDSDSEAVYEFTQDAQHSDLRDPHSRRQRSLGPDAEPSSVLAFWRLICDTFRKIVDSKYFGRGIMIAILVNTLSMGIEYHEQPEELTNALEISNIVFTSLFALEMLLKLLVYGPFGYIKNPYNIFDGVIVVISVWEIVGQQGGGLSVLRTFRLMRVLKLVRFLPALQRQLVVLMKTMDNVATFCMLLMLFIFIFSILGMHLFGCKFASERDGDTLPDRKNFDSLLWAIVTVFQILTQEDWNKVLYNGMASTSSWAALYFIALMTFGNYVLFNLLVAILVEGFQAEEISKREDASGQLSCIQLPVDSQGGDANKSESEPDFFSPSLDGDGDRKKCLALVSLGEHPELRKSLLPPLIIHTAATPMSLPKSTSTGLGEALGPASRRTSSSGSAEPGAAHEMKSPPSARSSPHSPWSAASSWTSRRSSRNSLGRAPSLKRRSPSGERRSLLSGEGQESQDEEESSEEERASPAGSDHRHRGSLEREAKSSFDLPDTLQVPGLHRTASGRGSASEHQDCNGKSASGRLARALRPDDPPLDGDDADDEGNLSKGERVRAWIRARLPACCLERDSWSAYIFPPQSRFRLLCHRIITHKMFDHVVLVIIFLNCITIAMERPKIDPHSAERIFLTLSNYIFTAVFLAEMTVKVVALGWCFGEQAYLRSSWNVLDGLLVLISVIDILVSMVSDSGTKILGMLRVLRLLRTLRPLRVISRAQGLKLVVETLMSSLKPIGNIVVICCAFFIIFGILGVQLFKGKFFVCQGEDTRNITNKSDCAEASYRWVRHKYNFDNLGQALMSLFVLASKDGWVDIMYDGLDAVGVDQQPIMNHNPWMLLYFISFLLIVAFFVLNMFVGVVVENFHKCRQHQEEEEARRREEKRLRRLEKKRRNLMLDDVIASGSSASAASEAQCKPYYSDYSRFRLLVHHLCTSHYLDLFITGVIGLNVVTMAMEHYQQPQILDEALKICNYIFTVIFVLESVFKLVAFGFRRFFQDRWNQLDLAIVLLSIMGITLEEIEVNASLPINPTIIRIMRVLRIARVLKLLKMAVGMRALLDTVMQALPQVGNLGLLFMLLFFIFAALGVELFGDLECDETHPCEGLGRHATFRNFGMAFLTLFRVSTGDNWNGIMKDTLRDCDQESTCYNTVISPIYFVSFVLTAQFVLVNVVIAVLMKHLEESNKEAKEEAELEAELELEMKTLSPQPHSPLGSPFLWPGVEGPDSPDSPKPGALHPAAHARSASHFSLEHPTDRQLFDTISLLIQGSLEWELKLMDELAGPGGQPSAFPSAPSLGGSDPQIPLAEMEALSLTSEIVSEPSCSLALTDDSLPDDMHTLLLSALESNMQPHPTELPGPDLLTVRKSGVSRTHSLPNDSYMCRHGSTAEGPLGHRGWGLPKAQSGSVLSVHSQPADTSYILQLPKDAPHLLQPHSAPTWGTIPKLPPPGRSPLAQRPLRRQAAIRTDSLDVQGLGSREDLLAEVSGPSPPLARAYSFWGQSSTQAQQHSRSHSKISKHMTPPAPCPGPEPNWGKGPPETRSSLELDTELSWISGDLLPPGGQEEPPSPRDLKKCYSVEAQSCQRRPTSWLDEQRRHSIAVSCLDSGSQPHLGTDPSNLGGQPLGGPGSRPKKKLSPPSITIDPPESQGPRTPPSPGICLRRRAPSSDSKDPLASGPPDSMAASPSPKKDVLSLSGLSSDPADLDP

`NC(=O)c1cccc(NCc2c[nH]c3ccc(Cl)cc23)c1`: the inhibition (usually the share of the control response that was lost under treatment) in [1] was found to be 39.9%.

As to `COc1cc(CNCc2ccc(Oc3ccc(C#N)cc3)cc2)cc(OC)c1OC`, the results for the IC50 in data set [2] and in data set [3] were 9.4 µM and 6.4 µM, respectively. Further, the inhibition in data set [1] was 60.4%; in [4], 54.9%.

With `COc1cc(CNCc2c[nH]c3ccc(Cl)cc23)cc(OC)c1OC`, the IC50 (usually the midpoint of a concentration-inhibition curve) in data set [2] came to 9.5 µM; in data set [3] it was 5.2 µM. Moreover, the inhibition in data set [1] amounted to 64.2%; in [4], 75.2%.

As to `COc1cc(CNCc2ccc(-c3cncnc3)cc2)cc(OC)c1OC`, the inhibition in [1] was determined as 38.3%.

On to `COc1ccc(-c2ccc(CNCc3cc(OC)c(OC)c(OC)c3)o2)cc1Cl`, for which the 50% inhibitory concentration (IC50) in [2] stood at 5.9 µM; in data set [3] it was 2.4 µM. For the same compound, the values for the inhibition in [1] and in [4] were 77.6% and 70.6%, respectively.

In the case of `NC(=O)c1cccc(NCc2cc(-c3ccc(Cl)cc3)on2)c1`, the inhibition in data set [1] is 25.2%.

Regarding `NC(=O)c1cccc(NCc2ccc(N3CCOCC3)cc2)c1`, the inhibition in [1] turned out to be 4.1%.

With `NC(=O)c1cccc(NCc2ccc(-c3ccc(Cl)cc3)o2)c1`, the inhibition in data set [1] was determined as 14.5%.

With `COc1cc(CNCc2ccc(-c3ccncc3)cc2)cc(OC)c1OC`, the inhibition in data set [1] is 21.9%.

With `N#Cc1ccc(Oc2ccc(-c3ccc(CNc4cccc(C(N)=O)c4)o3)cc2)cc1`, the result with Rattus norvegicus [5], in the data set with Rattus norvegicus [6], in the data set with Rattus norvegicus [7], in the data set on Rattus norvegicus [8], in the data set on Rattus norvegicus [9] and in the data set with Rattus norvegicus [10] was inactive. Besides, in data set [3], the IC50 was determined as 7.4 µM. The values for the inhibition in [1] and in data set [4] were 53% and 21.6%, respectively.

In the case of `NC(=O)c1cccc(NCc2ccc(-c3cccc(C(F)(F)F)c3)o2)c1`, the inhibition in [1] stood at 39.3%.

Take `COc1ccc(-c2ccc(CNc3cccc(C(N)=O)c3)o2)cc1Cl`: the inhibition in data set [1] was determined as 41.6%.

For the compound `COc1cc(CNCc2ccc(-c3cccc(C(F)(F)F)c3)o2)cc(OC)c1OC`, the 50% inhibitory concentration (IC50) in [2] was 6.7 µM; in [3], 2.5 µM. The inhibition in data set [1] amounted to 86.6%; in data set [4], 81.6%.

Consider `COc1cc(CNCc2ccc(-c3ccc(Cl)cc3)o2)cc(OC)c1OC`, for which the figures for the half-maximal inhibitory concentration (IC50) in [2] and in data set [3] were 4.3 µM and 1.9 µM, respectively. Besides, the figures for the Time in the data set on Rattus norvegicus [5], in the data set with Rattus norvegicus [6] and with Rattus norvegicus [8] were 8.3 s, 8.9 s and 5.8 s, respectively. In addition, the Activity in the data set on Rattus norvegicus [7] is reported as 2.6 g; with Rattus norvegicus [9], 11.1 g; with Rattus norvegicus [10], 9.16 g; with Rattus norvegicus [11], “Non-toxic”. Moreover, the inhibition in data set [1] came to 91.3%; in data set [4], 80.2%.

In the case of `COc1cc(CNCc2ccc(N3CCOCC3)cc2)cc(OC)c1OC`, the inhibition in data set [1] is 9.8%.

For the origin of these results see ChEMBL document CHEMBL3612045, “3-Benzamides and 3,4,5-trimethoxyphenyl amines as calcium channel blockers” (Bioorg Med Chem, 2015).
